Reference: patent publication US11612163B2, “Stabilization of whole blood samples” (The General Hospital Corporation, priority 2014, dated 2023)
Entries after “also recorded” stand apart in the source; their conditions may differ.

Key:
Type in all cases: cell-based, human
neutrophils [1] = assay: Apoptosis/necrosis inhibitors as preservatives of isolated neutrophils
Method: Evaluation of apoptosis and necrosis inhibitors as neutrophil preservatives. Neutrophils were isolated by negative selection from healthy donor whole blood using the recommended protocol and reagents from the Human Neutrophil Enrichment Kit (StemCell Technologies; Vancouver, British Columbia, Canada). Yield was determined by counting particles from 8-30 μm in diameter using a Coulter Counter Z1 (Beckman Coulter; Brea, Calif.). Neutrophils were stored in IMDM+20% FBS and were either untreated (control) or treated with 1.25 μL/mL DMSO (Sigma-Aldrich; St. Louis, Mo.), 5 μM Q-VD-OPh (Apex Bio; Houston, Tex.), 50 μM Necrostatin-1 (Cayman Chemical; Ann Arbor, Mich.), or 50 μM Boc-D-FMK Apex Bio; Houston, Tex.). Matched samples were processed immediately after isolation and after 24, 48, 72, and 96 hours of storage at 21° C. Samples were stained with R-phycoerythrin-conjugated Annexin V, SYTOX Green, Hoechst 33342 (all Life Technologies; Carlsbad, Calif.), and allophycocyanin-conjugated CD45 (Huntington Valley) and imaged using an ImageStream^X Mk. II Imaging Flow Cytometer (Amnis Corporation; Seattle, Wash.).

neutrophils [2] = assay: Neutrophil migration toward fMLP gradient (microfluidic device)
Method: To determine whether neutrophils stored under these conditions were still capable of migrating toward an fMLP gradient, we utilized a microfluidic device previously developed for this purpose. Briefly, fMLP, a neutrophil chemoattractant, is added to two outer chambers. The outer chambers are connected to an inner chamber through a series of channels, creating a gradient. The inner chamber was then filled with neutrophils. Freshly isolated neutrophils were immediately evaluated to establish a time 0 migratory response, then the preserved neutrophils were examined after 72 and 96 h ambient storage for comparison.

platelets = assay: Platelet activation surface markers by imaging flow cytometry; conditions: dosages 0.01-0.5 ug/mL, 20 min at 4 or 22° C.
Method: Platelet inhibitors used include: Tirofiban (Sigma), Eptifibatide (Tocris), Clopidogrel (Sigma), KF38789 (Tocris). In all experimental conditions that involved treatment with platelet inhibitors (e.g., tirofiban, eptifibatide, etc.), these compounds were added to blood samples and mixed by gentle rocking for 10 minutes before the sample was processed for other assays or storage. The addition of EDTA, unless otherwise stated, occurred 15 minutes prior to the assay (i.e., EDTA was not present during sample storage).
Platelet activation and cell viability were determined using the Image Stream Mark II imaging flow cytometer (Amnis Corporation) equipped with a 40× objective and the 405, 488, 642 nm lasers. For the platelet activation panel, 1 μl of whole blood was combined with PBS and fluorescently labeled antibodies as follows; Pacific Blue conjugated CD41 (1:150; clone HIP8; BioLegend), FITC conjugated PAC-1 (1:10; clone PAC-1 (RUO (GMP)); BD Pharmingen), PE conjugated CD62P (1:100; clone AK-4; BD Pharmingen), APC conjugated CD63 (1:10; clone H5C6; Biolegend), PE/Cy7 conjugated CD45 (1:100; clone HI30; Abcam). […]

neutrophil elastase = assay: Quantification of neutrophil elastase (NETosis); conditions: fresh whole blood stimulated, positive control for NETs, n=7
Method: Blood samples were mixed gently, warmed to 37° C. for four hours for the release of NETs contents into the plasma, and diluted with PBS to a final blood volume fraction of 25% before centrifugation at 2000×g for 5 minutes. The supernatant was then carefully transferred to a new centrifuge tube and stored at −80° C. for further processing. The level of neutrophil elastase was quantified using the Neutrophil Elastase Activity Assay Kit (Cayman Chemical Company) according to manufacturer's protocol, using a SpectraMax M5 spectrometer (Molecular Devices). As a positive control for NETosis, phorbol myristate acetate (100 nM) was added to fresh whole blood prior to incubation.

Compound: CC(C)[C@H](NC(=O)c1ccc2ccccc2n1)C(=O)N[C@@H](CC(=O)O)C(=O)COc1c(F)cccc1F [Q-VD-OPh, (3S)-5-(2,6-difluorophenoxy)-3-[[(2S)-3-methyl-2-(quinoline-2-carbonylamino)butanoyl]amino]-4-oxopentanoic acid]
- CD45 biomarker expression of neutrophils (neutrophils [1]; 5 μM, 96 h ambient storage): effectively preserved CD45 biomarker expression
- apoptosis inhibition in neutrophils (neutrophils [1]; 5 μM, IMDM+20% FBS, ambient storage up to 96 h): highly effective at apoptosis inhibition
- stability of treated neutrophils under ambient storage (neutrophils [1]; ambient storage conditions): 72 to 96 h
- migratory response to fMLP (neutrophils [2]; after 72 h ambient storage, vs freshly isolated neutrophils): comparable to that of the freshly isolated neutrophils; also recorded: nearly indistinguishable from the migratory response of the freshly isolated neutrophils
- migratory speed toward fMLP gradient (neutrophils [2]; after ambient storage, vs fresh neutrophils): identical to the fresh neutrophils; also recorded: maintained comparable speed to freshly isolated neutrophils

Compound: CCCCS(=O)(=O)N[C@@H](Cc1ccc(OCCCCC2CCNCC2)cc1)C(=O)O [Tirofiban]
- platelet activation (PAC-1, CD62/p-selectin) of cold treated platelets (platelets): minimally activated

Compound: CCCCCCCCCCCCCC(=O)O[C@@H]1[C@@H](C)[C@@]2(O)[C@@H](C=C(CO)C[C@]3(O)C(=O)C(C)=C[C@@H]23)[C@@H]2C(C)(C)[C@]12OC(C)=O [phorbol myristate acetate]
- neutrophil elastase level (neutrophil elastase): 81.4±64.4 mU/mL
